Like-named read-outs stand apart in the source and are kept apart here.
What was measured:
[1] = tested on: genotype 1b HCV-SGR(L31V/Y93H); test: microbe, parasite or virus in culture; format: cell-based, hepatitis C virus
genotype 2a HCV-SGR = test: genotype 2a HCV-SGR, transient, luciferase; conditions: read-out: Mean EC50 ± SD, HCV-SGR Genotype 2a
[2] = tested on: Infectious J6/JFH1 HCV genotype 2a/2a; test: infectious HCV model, luciferase; format: cell-based, hepatitis C virus; conditions: read-out: Mean EC50 ± SD, Infectious J6/JFH1 HCV genotype 2a/2a
[3] = tested on: genotype 1b HCV-SGR I133V; test: microbe, parasite or virus in culture; format: cell-based, hepatitis C virus; conditions: for EC50: 96 h, read-out: Mean EC50 ± SD, I133V
Method: (§1) Candidate resistance-associated substitutions (RASs) were introduced into a wild-type genotype 1b HCV-SGR containing the luciferase reporter gene by means of site-directed mutagenesis (QuikChange II XL site-directed mutagenesis kit; Agilent Technologies, Santa Clara, CA, USA). […] The replication capacity of the RAS-containing HCV-SGR was assessed by comparing luciferase activities at 4 h and 96 h posttransfection and expressed as a percentage of the wild-type replication capacity.

[4] = tested on: genotype 1b HCV-SGR E442G; test: microbe, parasite or virus in culture; format: cell-based, hepatitis C virus; conditions: for EC50: 96 h, read-out: Mean EC50 ± SD, E442G
Method: as §1

[5] = tested on: genotype 1b HCV-SGR L303P; test: microbe, parasite or virus in culture; format: cell-based, hepatitis C virus; conditions: for EC50: 96 h, read-out: Mean EC50 ± SD, L303P
Method: as §1

[6] = tested on: genotype 1b HCV-SGR Y321H; test: microbe, parasite or virus in culture; format: cell-based, hepatitis C virus; conditions: for EC50: 96 h, read-out: Mean EC50 ± SD, Y321H
Method: as §1

[7] = tested on: genotype 1b HCV-SGR R304W; test: microbe, parasite or virus in culture; format: cell-based, hepatitis C virus; conditions: for EC50: 96 h, read-out: Mean EC50 ± SD, R304W
Method: as §1

[8] = tested on: genotype 1b HCV-SGR D320E; test: microbe, parasite or virus in culture; format: cell-based, hepatitis C virus; conditions: for EC50: 96 h, read-out: Mean EC50 ± SD, D320E
Method: as §1

[9] = tested on: genotype 1b HCV-SGR K308I; test: microbe, parasite or virus in culture; format: cell-based, hepatitis C virus; conditions: for EC50: 96 h, read-out: Mean EC50 ± SD, K308I
Method: as §1

genotype 5a HCV-SGR = test: genotype 5a HCV-SGR, stable Huh7.5 cells, luciferase; format: cell-based, hepatitis C virus; conditions: 48 h, read-out: Mean EC50 ± SD, HCV-SGR Genotype 5a
[10] = tested on: chimeric genotype 2a/4a HCV-SGR; test: chimeric genotype 2a/4a HCV-SGR, transient, luciferase; conditions: read-out: Mean EC50 ± SD, HCV-SGR Genotype 2a/4a
CypA-NS5A interaction = CypA-NS5A interaction (Homo sapiens, UniProt P62937); format: binding
CypA = biological target: T1, CypA (Homo sapiens, UniProt P62937); test: TR-FRET competitive binding assay against labeled CsA
T1 construct: purchased Selcia, Ongar, UK

genotype 3a HCV-SGR = test: genotype 3a HCV-SGR, stable Huh7.5 cells, luciferase; format: cell-based, hepatitis C virus; conditions: 48 h, read-out: Mean EC50 ± SD, HCV-SGR Genotype 3a
ZIKV strain MR766 = test: ZIKV replication in Huh7 cells, RT-qPCR; format: cell-based, Zika virus
genotype 1a HCV-SGR = test: microbe, parasite or virus in culture; format: cell-based, hepatitis C virus
genotype 1b HCV-SGR = test: microbe, parasite or virus in culture; format: cell-based, hepatitis C virus
Method: Candidate resistance-associated substitutions (RASs) were introduced into a wild-type genotype 1b HCV-SGR containing the luciferase reporter gene by means of site-directed mutagenesis (QuikChange II XL site-directed mutagenesis kit; Agilent Technologies, Santa Clara, CA, USA). Ninety-six hours after RNA transfection, the susceptibility of the RAS-containing HCV-SGR to compound 31 was determined by measurement of luciferase activity and comparison to wild-type HCV-SGR susceptibility. The replication capacity of the RAS-containing HCV-SGR was assessed by comparing luciferase activities at 4 h and 96 h posttransfection and expressed as a percentage of the wild-type replication capacity.

[11] = biological target: CypA-NS5A-D320E interaction (Homo sapiens, UniProt P62937); format: binding; conditions: NS5A-D320E-Rluc, CypA-6His on Ni-NTA beads
[12] = tested on: HCV genotype 1b bicistronic replicon (I389-Neo/NS3-3'/5.1); test: genotype 1b HCV-SGR replicon model, stable Huh7.5 cells, RT-qPCR; format: cell-based, hepatitis C virus; conditions: 3 days
Method: of at least two independent measurements.
The cells were treated for
without G418. […] HCV‐SGR RNA
results were normalized to GAPDH.
replicates in cell culture.
antiviral activities. Nat Commun 7:12777.

[13] = tested on: full-length infectious HCV genotype 3a (DBN-3acc); test: full-length DBN-3acc replication, RT-qPCR; format: cell-based, hepatitis C virus; conditions: at 10 μM, Huh7.5 cells, 120 hours
Text: Madison, Wisconsin, USA).
(Promega) and quantified by RT‐qPCR.
(1 mi n ). […] The percent inhibition of […]

Huh7 cells = conditions: read-out: 50% cytotoxic concentration (CC50); flavivirus experiments
WNV = WNV replication; format: cell-based, West Nile virus; conditions: 50 μM the highest concentration tested, data not shown
JEV = JEV replication; format: cell-based, Japanese encephalitis virus; conditions: data not shown
[14] = tested on: DENV-4 strain Dominica 814669; test: DENV replication in Huh7 cells, RT-qPCR; format: cell-based, dengue virus; conditions: RT-qPCR at 48 h postinfection
CypA PPIase activity = CypA PPIase activity (Homo sapiens, UniProt P62937); test: CypA PPIase enzyme assay, chymotrypsin coupled; conditions: read-out: PPIase inhibition IC50, 20°C
YFV strain Dakar HD 1279 = format: cell-based, yellow fever virus; conditions: Huh7 cells, RT-qPCR at 48 h postinfection; read-out: EC50, YFV replication
Huh7.5 cells = test: cytotoxicity MTT assay; format: cell-based, Human; conditions: at its effective concentration, 3 days

Sequence of CypA PPIase activity (P62937 whole entry): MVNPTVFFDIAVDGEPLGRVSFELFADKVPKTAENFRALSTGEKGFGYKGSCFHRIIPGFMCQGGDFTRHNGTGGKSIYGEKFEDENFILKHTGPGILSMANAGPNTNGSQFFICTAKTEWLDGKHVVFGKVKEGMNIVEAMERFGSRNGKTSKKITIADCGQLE
Sequence of CypA-NS5A interaction (P62937 whole entry): as above
T1 sequence (P62937 whole entry): as above
Sequence of CypA-NS5A-D320E interaction (P62937 whole entry, stated change not applied): as the sequence (P62937 whole entry) above

Compound: C/C=C/C[C@@H](C)[C@@H](O)[C@H]1C(=O)N[C@@H](CC)C(=O)N(C)[C@H](C)C(=O)N(CC)[C@@H](C(C)C)C(=O)N[C@@H](C(C)C)C(=O)N(C)[C@@H](CC(C)C)C(=O)N[C@@H](C)C(=O)N[C@H](C)C(=O)N(C)[C@@H](CC(C)C)C(=O)N(C)[C@@H](CC(C)C)C(=O)N(C)[C@@H](C(C)C)C(=O)N1C [ALV, Alisporivir, reference compound]
- EC50 ([1]; Hepatitis C virus, 84 h, read-out: Mean EC50 ± SD, L31V/Y93H): 10 ± 1 nM
- EC50 (genotype 2a HCV-SGR; Hepatitis C virus, GETYPE2A, Huh7.5, 48 h): 20 ± 10 nM
- EC50 ([2]; Hepatitis C virus, Huh7.5, 72 h): 30 ± 2 nM
- EC50 ([3]; Hepatitis C virus): 20 ± 1 nM
- EC50 ([4]; Hepatitis C virus): 30 ± 4 nM
- EC50 ([5]; Hepatitis C virus): 40 ± 10 nM
- EC50 ([6]; Hepatitis C virus): 60 ± 20 nM
- EC50 ([7]; Hepatitis C virus): 30 ± 4 nM
- EC50 ([8]; Hepatitis C virus): 0.12 ± 0.05 µM
- EC50 ([9]; Hepatitis C virus): 40 ± 4 nM
- EC50 (genotype 5a HCV-SGR; Hepatitis C virus): 10 ± 10 nM
- EC50 ([10]; Hepatitis C virus, GETYPE2A, Huh7.5, 72 h): 10 ± 2 nM
- disruption of the CypA-NS5A interaction (CypA-NS5A interaction): disrupted
- Kd (CypA; purified CypA): < 5 nM
- EC50 (genotype 3a HCV-SGR; Hepatitis C virus): 0.02 ± 0.01 µM
- inhibition of ZIKV replication (ZIKV strain MR766; data not shown): did not inhibit
- EC50 (genotype 1a HCV-SGR; Hepatitis C virus, stable Huh7.5 cells, 48 h, luciferase, read-out: Mean EC50 ± SD, HCV-SGR Genotype 1a): 40 ± 30 nM
- EC50 (genotype 1b HCV-SGR; Hepatitis C virus, transient, Huh7.5 cells, 96 h posttransfection, luciferase, read-out: Mean EC50 ± SD, HCV-SGR Genotype 1b): 30 ± 10 nM
- EC50 (genotype 1b HCV-SGR; Hepatitis C virus, wild-type genotype 1b HCV-SGR, read-out: Mean EC50 ± SD, WT): 30 ± 10 nM

Compound: CSc1ccccc1C1CCCN1C(=O)C(NC(=O)NCc1ccc(N)cc1)c1ccccc1 (centres unmarked) [Compound C31]
- disruption of the NS5A-D320E interaction with CypA [11]: fully sensitive
- EC50 [12]: 0.4 ± 0.01 µM
- EC50 (genotype 2a HCV-SGR; transient, Huh7.5 cells, 48 h posttransfection, luciferase): 2300 ± 1200 nM
- EC50 ([2]; Huh7.5 cells, 72 h, luciferase): 2800 ± 400 nM
- maximal HCV RNA reduction, DBN-3acc RNA replication [13]: 244 fold
- Fold change, I133V ([3]; EC50 relative to wild type): 0.9
- EC50 ([3]; genotype 1b HCV-SGR): 2750 ± 200 nM
- Fold change, E442G ([4]; EC50 relative to wild type): 1.0
- EC50 ([4]; genotype 1b HCV-SGR): 2990 ± 700 nM
- Fold change, L303P ([5]; EC50 relative to wild type): 1.0
- EC50 ([5]; genotype 1b HCV-SGR): 3050 ± 400 nM
- Fold change, Y321H ([6]; EC50 relative to wild type): 1.8
- EC50 ([6]; genotype 1b HCV-SGR): 5410 ± 400 nM
- Fold change, R304W ([7]; EC50 relative to wild type): 0.8
- EC50 ([7]; genotype 1b HCV-SGR): 2470 ± 200 nM
- Fold change, D320E ([8]; EC50 relative to wild type): 3.0
- EC50 ([8]; genotype 1b HCV-SGR): 8.73 ± 1.1 µM
- Fold change, K308I ([9]; EC50 relative to wild type): 0.9
- EC50 ([9]; genotype 1b HCV-SGR): 2590 ± 200 nM
- EC50 (genotype 5a HCV-SGR): 1200 ± 830 nM
- EC50 ([10]; transient, Huh7.5 cells, 72 h posttransfection, luciferase): 1400 ± 1100 nM
- disruption of the CypA-NS5A interaction (CypA-NS5A interaction; WT-NS5A-Rluc, CypA-6His on Ni-NTA beads): disrupted
- CC50 (Huh7 cells): ≥ 100 µM
- EC50 (WNV): > 50 µM
- effect against JEV replication (JEV): no effect
- Kd (CypA; read-out: Kd, displacement of labeled CsA from CypA, purified CypA): 105 nM
- EC50 [14]: 7.3 ± 3.5 µM
- EC50 (genotype 3a HCV-SGR): 7.76 ± 1.57 µM
- EC50 (ZIKV strain MR766; Huh7 cells, RT-qPCR at 48 h postinfection): 48 ± 5.6 µM
- IC50 (CypA PPIase activity): 100 ± 10 nM
- EC50 (genotype 1a HCV-SGR; stable Huh7.5 cells, 48 h, luciferase, read-out: Mean EC50 ± SD, HCV-SGR Genotype 1a): 3800 ± 1900 nM
- EC50 (YFV strain Dakar HD 1279): 27.2 ± 4.7 µM
- cell viability (Huh7.5 cells): did not affect
- Fold change, WT (genotype 1b HCV-SGR; EC50 relative to wild type): 1.0
- EC50 (genotype 1b HCV-SGR; transient, Huh7.5 cells, 96 h posttransfection, luciferase, read-out: Mean EC50 ± SD, HCV-SGR Genotype 1b): 2950 ± 600 nM
- EC50 (genotype 1b HCV-SGR; wild-type genotype 1b HCV-SGR, read-out: Mean EC50 ± SD, WT): 2950 ± 600 nM

Compound: COC(=O)N[C@H](C(=O)N1CC2(CC2)C[C@H]1c1nc(-c2ccc3c(c2)C(F)(F)c2cc(-c4ccc5[nH]c([C@@H]6[C@H]7CC[C@H](C7)N6C(=O)[C@@H](NC(=O)OC)C(C)C)nc5c4)ccc2-3)c[nH]1)C(C)C [LDV, ledipasvir]
- increase in the LDV EC50, L31V and Y93H substitutions ([1]; genotype 1b HCV-SGR, versus wild type, data not shown): 714 fold
- EC50 (genotype 1a HCV-SGR; Hepatitis C virus, Huh7.5, read-out: EC50 used in the combination study, genotype 1a HCV-SGR): 0.01 nM

Compound: CSc1ccccc1C1CCCN1C(=O)C(C)NC(=O)NCc1ccc(N)cc1 (centres unmarked) [Compound C33, 1‐[(4‐aminophenyl)methyl]‐3‐(1‐{2‐[2‐(methylsylfanyl)phenyl]pyrrolidin‐1‐yl}‐1‐oxopropan‐2‐yl)urea]
- EC50 [12]: 12.9 ± 1.2 µM
- IC50 (CypA PPIase activity): 3080 ± 1170 nM

Compound: Nc1ccc(CNC(=O)NCC(=O)N2CCCC2c2cccc3ccccc23)cc1 (centres unmarked) [Compound C32]
- EC50 [12]: 9.01 ± 2.04 µM
- IC50 (CypA PPIase activity): 1490 ± 450 nM

Compound: CSCCC(NC(=O)NCc1ccc(N)cc1)C(=O)N1CCCC1c1ccccc1SC (centres unmarked) [Compound C34]
- EC50 [12]: 1.63 ± 0.38 µM

Compound: Nc1ccc(CNC(=O)NCC(=O)N2CCCC2c2ccccc2Br)cc1 (centres unmarked) [Compound C35]
- EC50 [12]: 4.51 ± 0.52 µM

Compound: COc1ccccc1C1CCCN1C(=O)CNC(=O)NCc1ccc(N)cc1 (centres unmarked) [Compound C36]
- EC50 [12]: 19.7 ± 2.9 µM
- IC50 (CypA PPIase activity): 5030 ± 1810 nM

From publication PMC6021681, “Characterization of the Anti-Hepatitis C Virus Activity of New Nonpeptidic Small-Molecule Cyclophilin Inhibitors with the Potential for Broad Anti-Flaviviridae Activity” (Antimicrobial Agents and Chemotherapy, 2018)
